Test results reported in patent US20230117034A1, “PYRAZOLOTRIAZINES” (Bayer Aktiengesellschaft, priority 2019, published 2023).

Target: CDK12/CycK (Homo sapiens, UniProt Q9NYV4)
Assay: CDK12/CycK high ATP kinase assay (TR-FRET, 2 mM ATP)
Format: biochemical
Settings: 2 mM ATP (high ATP); median; read-out: CDK12/CyclinK, 2 mM ATP (high ATP), IC50-[mol/l] (median)
Summary of the method: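 Read-out is TR-FRET (Eu-anti-rabbit IgG, anti-phospho-c-Myc Ser62 antibody, streptavidin-XL665) after EDTA stop. Reaction ran 60 min at 22 °C using 1 µM biotin-peptide and high ATP (2 mM) with roughly 0.75 nM recombinant CDK12/CycK, after 15 min compound pre-binding; normalised emission ratios yield IC50.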

CDK12/CycK, sequence (Q9NYV4 with tags, fused parts or gaps): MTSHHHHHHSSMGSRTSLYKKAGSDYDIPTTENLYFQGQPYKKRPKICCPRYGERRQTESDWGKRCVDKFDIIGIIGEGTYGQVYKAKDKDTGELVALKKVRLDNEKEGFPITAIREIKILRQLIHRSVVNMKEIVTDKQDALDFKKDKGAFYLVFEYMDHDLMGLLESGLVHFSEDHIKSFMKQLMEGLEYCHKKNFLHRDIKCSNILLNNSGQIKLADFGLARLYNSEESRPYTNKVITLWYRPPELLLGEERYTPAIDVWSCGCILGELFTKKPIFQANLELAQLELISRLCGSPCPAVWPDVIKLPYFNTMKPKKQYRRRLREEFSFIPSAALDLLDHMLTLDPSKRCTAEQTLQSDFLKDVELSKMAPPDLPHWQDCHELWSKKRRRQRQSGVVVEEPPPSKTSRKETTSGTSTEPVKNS
CDK12/CycK, sequence (O75909 1-300 partner limits assumed): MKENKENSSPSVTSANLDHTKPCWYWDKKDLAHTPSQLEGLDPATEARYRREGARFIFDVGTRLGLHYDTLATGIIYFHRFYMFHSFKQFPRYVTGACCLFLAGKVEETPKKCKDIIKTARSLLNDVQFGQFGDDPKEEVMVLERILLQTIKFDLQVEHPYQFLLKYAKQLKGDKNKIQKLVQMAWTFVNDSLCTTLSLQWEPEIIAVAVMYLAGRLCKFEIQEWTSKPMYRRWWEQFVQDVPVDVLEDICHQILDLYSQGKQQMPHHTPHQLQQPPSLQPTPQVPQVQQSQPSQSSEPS

| Compound | IC50 |
| --- | --- |
| Cc1cc2nc(CNc3nc(N4CCOCC4)nc4c(C5CC5)cnn34)[nH]c2cc1C [Example 320, 8-cyclopropyl-N-[(5,6-dimethyl-1H-benzimidazol-2-yl)methyl]-2-(morpholin-4-yl)pyrazolo[1,5-a][1,3,5]triazin-4-amine] | 0.557 µM |
| Brc1cnn2c(NCc3nc4ccccc4[nH]3)nc(N3C[C@H]4CC[C@@H]3CO4)nc12 (single isomer, unassigned; enantiomer 2) [Example 391, N-[(1H-benzimidazol-2-yl)methyl]-8-bromo-2-{[1R or S-(1R*,4R*)]-2-oxa-5-azabicyclo[2.2.2]octan-5-yl}pyrazolo[1,5-a][1,3,5]triazin-4-amine (Enantiomer 2)] | 6.7 µM |
| FC(F)(F)Oc1cccc2[nH]c(CNc3nc(N4C[C@H]5CC[C@@H](C4)N5)nc4c(Br)cnn34)nc12 [Example 381, 8-bromo-2-[(1R,5S)-3,8-diazabicyclo[3.2.1]octan-3-yl]-N-{[4-(trifluoromethoxy)-1H-benzimidazol-2-yl]methyl}pyrazolo[1,5-a][1,3,5]triazin-4-amine] | 5.91 µM |
| CN(c1nc(NCc2nc3ccccc3[nH]2)n2ncc(Br)c2n1)[C@H]1C[C@H](O)C1 [Example 365, trans-3-[(4-{[(1H-benzimidazol-2-yl)methyl]amino}-8-bromopyrazolo[1,5-a][1,3,5]triazin-2-yl)(methyl)amino]cyclobutan-1-ol] | 5.85 µM |
| CN(CC(C)(C)O)c1nc(NCc2nc3c(F)cccc3[nH]2)n2ncc(Cl)c2n1 [Example 366, 1-[(8-chloro-4-{[(4-fluoro-1H-benzimidazol-2-yl)methyl]amino}pyrazolo[1,5-a][1,3,5]triazin-2-yl)(methyl)amino]-2-methylpropan-2-ol] | 1.81 µM |
| FC(F)(F)c1cnn2c(NCc3nc4cc(Cl)c(Cl)cc4[nH]3)nc(N3CCOCC3)nc12 [Example 332, N-[(5,6-dichloro-1H-benzimidazol-2-yl)methyl]-2-(morpholin-4-yl)-8-(trifluoromethyl)pyrazolo[1,5-a][1,3,5]triazin-4-amine] | 0.19 µM |
| Clc1cc2nc(CNc3nc(N4CCOCC4)nc4c(Br)cnn34)[nH]c2cc1Cl [Example 329, 8-bromo-N-[(5,6-dichloro-1H-benzimidazol-2-yl)methyl]-2-(morpholin-4-yl)pyrazolo[1,5-a][1,3,5]triazin-4-amine] | 0.54 µM |
| CC[C@H](COC)Nc1nc(NCc2nc3ccccc3[nH]2)n2ncc(Br)c2n1 [Example 369, N4-[(1H-benzimidazol-2-yl)methyl]-8-bromo-N2-[(2R)-1-methoxybutan-2-yl]pyrazolo[1,5-a][1,3,5]triazine-2,4-diamine] | > 20 µM |
| Brc1cnn2c(NCc3nc4ccccc4[nH]3)nc(N3CCN4CCC3C4)nc12 (stereo not drawn) [Example 350, N-[(1H-benzimidazol-2-yl)methyl]-8-bromo-2-(1,4-diazabicyclo[3.2.1]octan-4-yl)pyrazolo[1,5-a][1,3,5]triazin-4-amine] | 7.8 µM |
| CN1CCN(c2nc(NCc3nc4cc(OC(F)(F)F)ccc4[nH]3)n3ncc(Br)c3n2)CC1 [Example 377, 8-bromo-2-(4-methylpiperazin-1-yl)-N-{[5-(trifluoromethoxy)-1H-benzimidazol-2-yl]methyl}pyrazolo[1,5-a][1,3,5]triazin-4-amine] | 5.09 µM |
| Brc1cnn2c(NCc3nc4ccccc4[nH]3)nc(N3CC4CCC3CO4)nc12 (stereo not drawn) [Example 352, N-[(1H-benzimidazol-2-yl)methyl]-8-bromo-2-(2-oxa-5-azabicyclo[2.2.2]octan-5-yl)pyrazolo[1,5-a][1,3,5]triazin-4-amine] | 5.25 µM |
| FC(F)(F)c1ccc2[nH]c(CNc3nc(N4CCOCC4)nc4c(C5CC5)cnn34)nc2c1 [Example 322, 8-cyclopropyl-2-(morpholin-4-yl)-N-{[5-(trifluoromethyl)-1H-benzimidazol-2-yl]methyl}pyrazolo[1,5-a][1,3,5]triazin-4-amine] | 1.21 µM |
